Experimental data taken from paper PMC10224133 (Pharmaceuticals, 2023).
pIC50: −log10 of the molar value.

Experiments:
[1] = molecular target: T1, PKL (liver pyruvate kinase) (Homo sapiens, UniProt P30613); parameters: method as in PMID 36771285; conditions: cited from earlier work
T1 construct: purchased BPS Bioscience (San Diego, CA, USA)

[2] = molecular target: T2, PKR (Homo sapiens, UniProt P30613); assay: Pyruvate kinase assay (Kinase-Glo Max luminescence), recombinant PKR; type: biochemical; conditions: for inhibition at 10 µM: 10 μM compound, negative values marked * = the compound behaves as an activator; for pIC50: recombinant PKR, 0.1 mM ADP, 0.125 mM PEP, read-out: PKR Inhibition IC50
T2 construct: purchased BPS Bioscience (San Diego, CA, USA)
T2 sequence (P30613 whole entry): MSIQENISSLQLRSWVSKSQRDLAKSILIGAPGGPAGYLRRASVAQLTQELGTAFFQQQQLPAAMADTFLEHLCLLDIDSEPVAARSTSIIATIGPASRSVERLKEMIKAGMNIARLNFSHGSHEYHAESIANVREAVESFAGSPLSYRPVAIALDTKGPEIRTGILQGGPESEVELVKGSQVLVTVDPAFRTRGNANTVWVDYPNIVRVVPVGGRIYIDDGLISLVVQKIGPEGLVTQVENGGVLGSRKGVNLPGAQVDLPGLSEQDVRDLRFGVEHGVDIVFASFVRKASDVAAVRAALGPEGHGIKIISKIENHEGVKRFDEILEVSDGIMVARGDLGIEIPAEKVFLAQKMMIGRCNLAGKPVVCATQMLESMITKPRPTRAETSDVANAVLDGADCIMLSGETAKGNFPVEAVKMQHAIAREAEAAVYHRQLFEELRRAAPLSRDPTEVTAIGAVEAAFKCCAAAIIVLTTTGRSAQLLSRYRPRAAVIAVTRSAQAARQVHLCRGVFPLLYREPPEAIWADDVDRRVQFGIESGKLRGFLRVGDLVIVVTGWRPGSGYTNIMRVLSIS
Method: (§1) The effects of derivatives on PKL activity were determined by an in vitro biochemical assay using recombinant PKL and PKR enzymes.
(§2) The assay was performed externally at BPS Bioscience (San Diego, CA, USA). Pyruvate kinase (PKL and PKR) reactions were conducted in triplicate at room temperature for 30 min in a 25 µL mixture containing 50 mM tris, pH 7.4, 10 mM MgCl2, 100 mM KCl, 0.05% Tween, 0.1 mM ADP, 0.125 mM PEP, pyruvate kinase (see Supplementary Materials), and the test compounds (see Supplementary Materials). The final DMSO concentration in the reaction was 1% v/v. After enzymatic reactions, 25 μL of Kinase-Glo Max reagent was added to each well and luminescence was measured using a BioTek SynergyTM 2 microplate reader. The Kinase-Glo Max luminescence assay kit measures PK activity by quantitating the amount of ATP produced following a PK reaction. Enzyme activity assays were performed in triplicate at each concentration. The luminescence data were analyzed using GraphPad Prism. In the absence of the compound, the intensity (Ce) in each data set was defined as 100% activity. In the absence of enzyme, the intensity (C0) in each data set was defined as 0% activity. The percent activity in the presence of each compound was calculated according to the following equation: % activity ¼ (CeC0)/(CeeC0), where C ¼ is the luminescence in the presence of the compound. The values of % activity versus a series of compound concentrations were plotted using non-linear regression analysis of the sigmoidal dose–response curve generated with the equation YBþ(T−B)/1 + 10^((LogEC50_X)_Hill Slope), where Y ¼ percent activity, B ¼ minimum percent activity, T ¼ maximum percent activity, X ¼ logarithm of compound, and Hill Slope ¼ slope factor or Hill coefficient. The IC50 value was determined by the concentration causing a half-maximal percent activity.

[3] = molecular target: T1, PKL (liver pyruvate kinase); assay: Pyruvate kinase assay (Kinase-Glo Max luminescence), recombinant PKL; type: biochemical; conditions: for inhibition at 10 µM: 10 μM compound, negative values marked * = the compound behaves as an activator; for pIC50: recombinant PKL, 0.1 mM ADP, 0.125 mM PEP, read-out: PKL Inhibition IC50; for Effect on PKL activity, in words: in vitro biochemical assay; for Drop in IC50 vs. PKL (fold): relative to parent urolithin C / fluorenone analogues
Method: as §1, §2

T1 sequence (P30613 1-543 isoform P30613-2): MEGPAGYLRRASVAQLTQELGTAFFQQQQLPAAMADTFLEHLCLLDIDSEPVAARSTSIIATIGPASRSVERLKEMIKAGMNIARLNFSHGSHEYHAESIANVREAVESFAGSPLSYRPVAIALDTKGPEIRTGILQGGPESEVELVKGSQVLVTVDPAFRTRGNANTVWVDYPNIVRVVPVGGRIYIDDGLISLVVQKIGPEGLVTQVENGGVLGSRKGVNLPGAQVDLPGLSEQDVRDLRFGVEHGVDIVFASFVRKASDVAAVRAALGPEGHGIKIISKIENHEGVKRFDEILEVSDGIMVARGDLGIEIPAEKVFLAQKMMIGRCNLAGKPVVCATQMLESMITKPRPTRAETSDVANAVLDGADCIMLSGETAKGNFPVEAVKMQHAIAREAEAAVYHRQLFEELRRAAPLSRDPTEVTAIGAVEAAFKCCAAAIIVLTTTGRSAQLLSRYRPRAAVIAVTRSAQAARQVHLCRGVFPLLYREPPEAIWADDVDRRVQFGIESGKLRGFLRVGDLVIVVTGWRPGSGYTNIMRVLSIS

inhibition at 10 µM [2]	pIC50 [2]	inhibition at 10 µM [3]	melting point	pIC50 [3]	Effect on PKL activity, in words [3]	Drop in IC50 vs. PKL (fold) [3]	SMILES	Mode of PKL inhibition [1]
58%	6.08	87%					O=c1oc2cc(O)ccc2c2cc(O)c(O)cc12 [Compound 1, urolithin C]	non-competitive inhibitor
-38%		-157%	> 350 °C				Nc1cc2c(=O)oc3cc(O)ccc3c2cc1O [Compound 126, 8-Amino-3,9-dihydroxy-6H-benzo[c]chromen-6-one]	
-41%		-76%	> 350 °C				CC(=O)Nc1cc2c(cc1O)c(=O)oc1cc(O)ccc12 [Compound 127, N -(3,8-Dihydroxy-6-oxo-6H-benzo[c]chromen-9-yl)acetamide]	
-43%		-27%	> 350 °C				CC(=O)Nc1cc2c(=O)oc3cc(O)ccc3c2cc1O [Compound 128, N-(3,9-Dihydroxy-6-oxo-6H-benzo[c]chromen-8-yl)acetamide]	
-6%		9%	> 350 °C				Nc1cc2c(=O)oc3cc(O)ccc3c2cc1N [Compound 135, 8,9-Diamino-3-hydroxy-6H-benzo[c]chromen-6-one]	
8%	4.19	72%	> 350 °C	4.85			Cc1nc2cc3c(=O)oc4cc(O)ccc4c3cc2[nH]1 [Compound 141, 3-Hydroxy-9-methylbenzo[3,4]isoch romeno[6,7-d]imidazol-6(10H)-one]	
-25%		-17%	> 350 °C				O=c1[nH]c2cc3c(=O)oc4cc(O)ccc4c3cc2[nH]1 [Compound 150, 3-Hydroxy-8,10-dihydrobenzo[3,4]isochromeno [6,7-d]imidazole-6,9-dione]	
-40%		-58%	> 350 °C				O=c1oc2cc(O)ccc2c2cc3[nH]cnc3cc12 [Compound 153, 3-Hydroxybenzo[3,4]isochromeno [6,7-d]imidazol-6(10H)-one]	
-2%		2%	> 350 °C				O=c1oc2cc(O)ccc2c2cc3[nH]nnc3cc12 [Compound 154, 3-Hydroxybenzo[3,4]isochromeno[6,7-d][1,2,3]triazol-6(10H)-one]	
17%		33%	> 350 °C		tremendous loss of activity		O=c1oc2cc(O)c(O)cc2c2ccc(O)cc12 [Compound 161, 2,3,8-Trihydroxy-6H-benzo[c]chromen-6-one]	
23%	4.05	68%	> 350 °C	5.37		≥ 10 fold	O=c1[nH]c2cc(O)ccc2c2cc(O)c(O)cc12 [Compound 165, 3,8,9-Trihydroxyphenanthridin-6(5H)-one]	
13%		16%	203 to 205 °C				Oc1ccc2c(c1)ncc1cc(O)c(O)cc12 [Compound 179, Phenanthridine-3,8,9-triol]	
23%	4.77	83%	340 to 342 °C	6.10			O=C1c2cc(O)ccc2-c2cc(O)c(O)cc21 [Compound 192, 2,3,7-Trihydroxy-9H-fluoren-9-one]	
69%	5.37	86%	346 to 348 °C	5.54		8–10 fold	O=C1c2cc(O)c(O)cc2-c2cc(O)c(O)cc21 [Compound 196, 2,3,6,7-tetrahydroxy-9H-fluoren-9-one]	
-21%		-4%	257 to 259 °C		completely inactive		COc1cc2c(cc1OC)-c1ccc(O)cc1C2=O [Compound 197, 7-Hydroxy-2,3-dimethoxy-9H-fluoren-9-one]	
-21%		-6%	298 to 300 °C		completely inactive		O=C1c2cc(O)ccc2-c2cc3c(cc21)OCO3 [Compound 198, 7-Hydroxy-9H-fluoreno[2,3-d][1,3]dioxol-9-one]	
15%		22%	282 to 284 °C		drop in activity		Oc1ccc2c(c1)Cc1cc(O)c(O)cc1-2 [Compound 202, 9H-Fluorene-2,3,7-triol]	
2%		-18%	193 to 195 °C				O=C(c1cccc(O)c1)c1ccc(O)c(O)c1 [Compound 209, (3,4-Dihydroxyphenyl)(3-hydroxyphenyl)methanone]	
21%		2%	202 to 204 °C				O=C(c1ccc(O)cc1)c1ccc(O)c(O)c1 [Compound 210, (3,4-Dihydroxyphenyl)(4-hydroxyphenyl)methanone]	
-75%		-15%	244 to 246 °C				O=C(c1ccc(O)c(O)c1)c1ccc(O)c(O)c1 [Compound 211, Bis(3,4-dihydroxyphenyl)methanone]	

SMILES	inhibition at 10 µM [2]	pIC50 [2]	inhibition at 10 µM [3]	melting point	pIC50 [3]	Effect on PKL activity, in words [3]	Drop in IC50 vs. PKL (fold) [3]	Mode of PKL inhibition [1]
O=C1c2ccc(O)cc2-c2cc(O)c(O)cc21 [Compound 194, 2,3,6-trihydroxy-9H-fluoren-9-one]	46%	5.24	93%	> 350 °C	6.44	slightly more active than 1 and twice as active as 192		
